# Data reported in patent US5189171A, “Antipsychotic benzodioxan derivatives” (American Home Products Corporation, priority 1992, dated 1993).
# Several values for one entry are separate records, joined by “and”; a condition that tells them apart may be missing. Equal values may be shown once.
# What was measured:
# 5-HT1A receptor = details: cited from earlier work
# [1] = test system: dopamine synthesis (dopa accumulation; dopamine autoreceptor); assay: Inhibition of dopa accumulation in GBL-treated rats (method of Walters and Roth); format: in vivo, rat (male, Sprague-Dawley); details: rat; for Dopa Accumulation (% inhib. @ 10 mg/kg, sc), limbic (L): limbic (L) brain tissue; for Dopa Accumulation (% inhib. @ 10 mg/kg, sc), striatal (S): striatal (S) brain tissue; for Dopa Accumulation (% inhib. @ 10 mg/kg, sc), tissue not indicated: (L)/(S) mark not given
# Protocol: The effect of the compounds of the invention on the synthesis of dopamine was established by the method of Walters and Roth, Naunyn-Schmiedeberg's Arch. Pharmacol. 296:5-14, 1976, in which rats (male, Sprague-Dawley, Charles River, 200-350 g) were administered vehicle or test drug ten minutes prior to the administration of gamma butyrolactone (GBL; 750 mg/kg, ip to inhibit dopaminergic impulse flow) and 20 minutes prior to NSD-1015 (100 mg/kg, ip to prevent the conversion of dopa to dopamine). Thirty minutes after NSD-1015 all rats were humanely euthenized and the nucleus accumbens and the straitum were removed for analysis. Following perchloric acid extraction of the tissue, the extracts were placed over alumina columns to collect and concentrate dopa and other catechols. This eluate was then subjected to HPLC analysis using electrochemical detection to quantify the levels of dopa present. Dopamine autoreceptor agonists, under the conditions used above, inhibit dopa accumulation.
# mouse locomotor activity = assay: Reduction of mouse locomotor activity (hypolocomotion; Martin and Bendensky); format: in vivo, mouse (male, CF-1); details: horizontal activity counts 10 to 20 minutes after dosing; for ED50: Mus musculus, ip, 20 min
# Protocol: The antipsychotic activity of the compounds of the invention was further established by a determination of the compounds' ability to reduce mouse locomotor activity according to the method of Martin and Bendensky, J. Pharmacol. Exp. Therap. 229: 706-711, 1984, in which mice (male, CF-1, Charles River, 20-30 g) were injected with vehicle or various doses of each drug and locomotor activity was measured for 30 minutes using automated infrared activity monitors (Omnitech-8×8 inch open field) located in a darkened room. ED50's were calculated from the horizontal activity counts collected from 10 to 20 minutes after dosing using a nonlinear regression analysis with inverse prediction.
# dopamine D2 receptor = target: T1, dopamine D2 receptor (Rattus norvegicus, UniProt P61169); assay: Affinity for the dopamine D2 receptor, 3H-spiroperidol binding in homogenized limbic brain tissue; details: for IC50: read-out: Receptor Affinities D2 (IC50 (nM)); for inhibition at 1 µM: read-out: Receptor Affinities D2 (% @ ( ) μM)
# T1 construct: from tissue; host or cells: homogenized limbic brain tissue
# Protocol: Affinity for the dopamine D2 receptor was established by the standard experimental test procedure of Fields, et al., Brain Res., 136, 578 (1977) and Yamamura et al., eds., Neurotransmitter Receptor Binding, Raven Press, New York (1978) wherein homogenized limbic brain tissue is incubated with ^3 H-spiroperidol and various concentrations of test compound, filtered and washed and shaken with Hydrofluor scintillation cocktail (National Diagnostics) and counted in a Packard 460 CD scintillation counter.
# [2] = target: T2, serotonin 5-HT1A receptor (Rattus norvegicus, UniProt P19327); assay: Affinity for the serotonin 5-HT1A receptor, displacement of [3H]8-OHDPAT (Hall et al.); format: binding; details: [3H]8-OHDPAT displacement; for IC50: read-out: Receptor Affinities 5-HT1A (IC50 (nM)); for inhibition at 0.1 µM: read-out: Receptor Affinities 5-HT1A (% @ ( ) μM)
# T2 construct: following the procedure of Hall et al., J. Neurochem; 44, 1685 (1985); from tissue
# T2 sequence (P19327 1-422): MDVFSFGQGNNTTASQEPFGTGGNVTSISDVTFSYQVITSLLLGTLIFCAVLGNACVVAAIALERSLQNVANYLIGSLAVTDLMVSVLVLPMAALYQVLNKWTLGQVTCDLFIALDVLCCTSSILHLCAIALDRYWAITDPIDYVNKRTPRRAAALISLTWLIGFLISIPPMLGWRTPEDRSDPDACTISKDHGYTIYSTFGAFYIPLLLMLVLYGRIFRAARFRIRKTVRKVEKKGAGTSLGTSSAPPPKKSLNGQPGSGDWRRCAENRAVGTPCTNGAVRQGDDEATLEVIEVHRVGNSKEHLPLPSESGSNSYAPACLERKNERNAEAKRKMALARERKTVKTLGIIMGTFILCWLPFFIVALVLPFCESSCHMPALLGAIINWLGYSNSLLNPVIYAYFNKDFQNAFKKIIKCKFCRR
# Source text: Affinity for the serotonin 5-HT1A receptor was established by testing the claimed compound's ability to displace [^3 H]8-OHDPAT (dipropylaminotetralin) from the 5-HT1A serotonin receptor following the procedure of Hall et al., J. Neurochem. 44, 1685 (1985). […] The anxiolytic activity of buspirone is believed to be, at least partially, due to its 5-HT1A receptor affinity (Vander Maclen et al., Eur. J. Pharmacol. 1986, 129 (1-2) 133-[…]).
# T1 sequence (P61169 whole entry): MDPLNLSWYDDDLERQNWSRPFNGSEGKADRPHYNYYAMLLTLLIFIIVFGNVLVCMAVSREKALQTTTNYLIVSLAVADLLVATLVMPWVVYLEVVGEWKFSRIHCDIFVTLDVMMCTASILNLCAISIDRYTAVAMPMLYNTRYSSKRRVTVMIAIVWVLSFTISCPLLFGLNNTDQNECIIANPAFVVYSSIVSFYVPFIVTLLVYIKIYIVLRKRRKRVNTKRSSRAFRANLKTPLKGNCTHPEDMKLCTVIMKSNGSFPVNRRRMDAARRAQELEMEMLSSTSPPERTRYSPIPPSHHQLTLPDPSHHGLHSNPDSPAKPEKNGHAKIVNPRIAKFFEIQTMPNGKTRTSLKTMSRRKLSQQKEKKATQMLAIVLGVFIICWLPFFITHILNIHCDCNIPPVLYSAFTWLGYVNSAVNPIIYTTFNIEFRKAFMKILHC
compound,measurement,setting,value
"O=C1CC2(CCCC2)CC(=O)N1CCCCNCC1COc2ccccc2O1 (single isomer, unassigned; (-)) [(-)-MDL 72832]",binding at the 5-HT1A receptor site relative to the dextrorotary isomer,"5-HT1A receptor; (-)-isomer vs dextrorotary isomer, Fozard et al. 1987",32 times
"O=c1ccc2ccc(OCCCNCC3COc4ccccc4O3)cc2o1 (stereo not drawn) [Example 1, 7-[3-[[(2,3-Dihydro-1,4-benzodioxin-2-yl)methyl]amino]propoxy]-2H-1-benzopyran-2-one]","Dopa Accumulation (% inhib. @ 10 mg/kg, sc), limbic (L)",[1],39%
same,"Dopa Accumulation (% inhib. @ 10 mg/kg, sc), striatal (S)",[1],1%
same,ED50,mouse locomotor activity,0.58 mg/kg
same,IC50,dopamine D2 receptor,112 nM
same,IC50,[2],0.5 nM
"COc1cccc2c1OCC(CNCCCOc1ccc3ccc(=O)oc3c1)O2 (stereo not drawn) [Example 2, 7-[3-[[(2,3-Dihydro-5-methoxy-1,4-benzodioxin-2-yl)methyl]amino]propoxy]-2H-1-benzopyran-2-one]","Dopa Accumulation (% inhib. @ 10 mg/kg, sc), limbic (L)",[1],-12%
"O=c1ccc2ccc(OCCCNCC3COc4cc(OCc5ccccc5)ccc4O3)cc2o1 (stereo not drawn) [Example 4, 7-[3-[[(2,3-Dihydro-6-phenylmethoxy-1,4-benzodioxin-2-yl)methyl]amino]propoxy]-2H-1-benzopyran-2-one]","Dopa Accumulation (% inhib. @ 10 mg/kg, sc), limbic (L)",[1],20%
"O=c1ccc2ccc(OCCCNCC3COc4cc(O)ccc4O3)cc2o1 (stereo not drawn) [Example 5, 7-[3-[[(2,3-Dihydro-6-hydroxy-1,4-benzodioxin-2-yl)methyl]amino]propoxy]-2H-1-benzopyran-2-one]","Dopa Accumulation (% inhib. @ 10 mg/kg, sc), limbic (L)",[1],60%
same,"Dopa Accumulation (% inhib. @ 10 mg/kg, sc), striatal (S)",[1],18%
same,ED50,mouse locomotor activity,1.62 mg/kg
same,"Hypolocomotion (ED50 mg/kg, ip)",mouse locomotor activity,2.04 mg/kg
same,IC50,dopamine D2 receptor,337 nM and 730 nM
same,IC50,[2],112 nM
"O=c1ccc2ccc(OCCCNCC3COc4ccc(O)cc4O3)cc2o1 (stereo not drawn) [Example 6, 7-[3-[[(2,3-Dihydro-7-hydroxy-1,4-benzodioxin-2-yl)methyl]amino]propoxy]-2H-1-benzopyran-2-one]","Dopa Accumulation (% inhib. @ 10 mg/kg, sc), limbic (L)",[1],76%
same,"Dopa Accumulation (% inhib. @ 10 mg/kg, sc), striatal (S)",[1],73%
same,ED50,mouse locomotor activity,0.19 mg/kg
same,inhibition at 1 µM,dopamine D2 receptor,100%
same,IC50,[2],6 nM
"O=c1ccc2c(OCCCNCC3COc4ccccc4O3)cccc2[nH]1 (stereo not drawn) [Example 7, 5-[3-[[(2,3-Dihydro-1,4-benzodioxin-2-yl)methyl]amino]propoxy]-2(1H)-quinolinone]","Dopa Accumulation (% inhib. @ 10 mg/kg, sc), limbic (L)",[1],1.5%
same,"Dopa Accumulation (% inhib. @ 10 mg/kg, sc), striatal (S)",[1],51.3%
"O=c1ccc2ccc(OCCCNC[C@H]3COc4cc(O)ccc4O3)cc2o1 [Example 8, (S)-7-[3-[[(2,3-Dihydro-6-hydroxy-1,4-benzodioxin-2-yl)methyl]amino]propoxy]-2H-1-benzopyran-2-one]","Dopa Accumulation (% inhib. @ 10 mg/kg, sc), limbic (L)",[1],50%
same,ED50,mouse locomotor activity,3.5 mg/kg
same,IC50,[2],104 nM
"COc1ccc2c(c1)OC(CNCCCOc1ccc3ccc(=O)oc3c1)CO2 (stereo not drawn) [Example 9, 7-[3-[[(2,3-Dihydro-7-methoxy-1,4-benzodioxin-2-yl)methyl]amino]propoxy]-2H-1-benzopyran-2-one]","Dopa Accumulation (% inhib. @ 10 mg/kg, sc), limbic (L)",[1],21.7%
same,inhibition at 1 µM,dopamine D2 receptor,66%
"O=c1ccc2ccc(OCCCNC[C@@H]3COc4cc(O)ccc4O3)cc2o1 [Example 10, (R)-7-[3-[[(2,3-Dihydro-6-hydroxy-1,4-benzodioxin-2-yl)methyl]amino]propoxy]-2H-1-benzopyran-2-one]","Dopa Accumulation (% inhib. @ 10 mg/kg, sc), tissue not indicated",[1],24.0%
"CC(=O)Oc1ccc2c(c1)OCC(CNCCCOc1ccc3ccc(=O)oc3c1)O2 (stereo not drawn) [Example 11, 7-[3-[[(2,3-Dihydro-6-acetoxy-1,4-benzodioxin-2-yl)methyl]amino]propoxy]-2H-1-benzopyran-2-one]","Dopa Accumulation (% inhib. @ 10 mg/kg, sc), limbic (L)",[1],37.7%
same,inhibition at 0.1 µM,[2],78%
"CCN(CCCOc1ccc2ccc(=O)oc2c1)CC1COc2ccc(O)cc2O1 (stereo not drawn) [Example 12, 7-[3-[[(2,3-Dihydro-7-hydroxy-1,4-benzodioxin-2-yl)methyl]ethylamino]propoxy]-2H-1-benzopyran-2-one]","Dopa Accumulation (% inhib. @ 10 mg/kg, sc), limbic (L)",[1],61.6%
same,ED50,mouse locomotor activity,1.6 mg/kg
same,inhibition at 0.1 µM,[2],81%
COc1ccc2c(c1)OC(CN(C)CCCOc1ccc3ccc(=O)oc3c1)CO2 (stereo not drawn) [Example 14],"Dopa Accumulation (% inhib. @ 10 mg/kg, sc), tissue not indicated",[1],19.5%
"CN(CCCOc1ccc2ccc(=O)oc2c1)CC1COc2cc(O)ccc2O1 (stereo not drawn) [Example 15, 7-[3-[[(2,3-Dihydro-6-hydroxy-1,4-benzodioxin-2-yl)methyl]methylamino]propoxy]-2H-1-benzopyran-2-one]","Dopa Accumulation (% inhib. @ 10 mg/kg, sc), tissue not indicated",[1],9.2%
same,inhibition at 0.1 µM,[2],23%
COc1cc(OC)c2c(c1)OCC(CNCCCOc1ccc3ccc(=O)oc3c1)O2 (stereo not drawn) [Example 19],"Dopa Accumulation (% inhib. @ 10 mg/kg, sc), limbic (L)",[1],23%
"O=c1ccc2ccc(OCCCNC[C@H]3COc4ccc(O)cc4O3)cc2o1 [Example 20, (S)-7-[3-[[(2,3-Dihydro-7-hydroxy-1,4-benzodioxin-2-yl)methyl]amino]propoxy]-2H-1-benzopyran-2-one]","Dopa Accumulation (% inhib. @ 10 mg/kg, sc), limbic (L)",[1],45%
"O=C1CC2(CCCC2)CC(=O)N1CCCCNCC1COc2ccccc2O1 (stereo not drawn) [MDL 72832, 8-[4-(1,4-benzodioxan-2-ylmethylamino)butyl]-8-azaspiro[4.5]decane-7,9-dione]",selectivity as ligand for 5-HT1A receptors (in words),5-HT1A receptor; Fozard et al. 1987,selective and stereospecific
O=C1CC2(CCCC2)CC(=O)N1CCCCN1CCN(c2ncccn2)CC1 [buspirone],affinity for the 5-HT1A serotonin receptor subtype (in words),5-HT1A receptor; standard for anxiolytic activity,potent affinity
